Results: publication PMC10439952, “JT002, a small molecule inhibitor of the NLRP3 inflammasome for the treatment of autoinflammatory disorders” (Scientific Reports, 2023)

Assays:
[1] = test system: pyroptosis of mouse BMDMs; assay: Inhibition of pyroptotic cell death measured by cellular ATP content (CellTiter-Glo viability) in LPS + nigericin stimulated mouse BMDMs; type: cell-based; settings: Mouse BMDM, read-out: Geo Av IC50, Viability (pyroptosis, cellular ATP content)
Description: (§1) Cell viability was determined by addition of an equal volume of CellTiter-Glo® 2.0 reagent (Promega) to the remaining cells/supernatant in each well. Intracellular Caspase-1 activity was measured using the Caspase-Glo® assay (Promega) according to the manufacturer’s instructions. The biochemical capsase-1 assay was conducted at Reaction Biology Corporation (Malvern, USA). Human IL-1β, IL-1α, and TNFα and mouse IL-1β were measured in cell culture supernatants using homogeneous time resolved fluorescence assay kits (HTRF, Cisbio, Codolet, France). Human IL-18 was measured in cell culture supernatants using an ELISA kit (R&D Systems, Minneapolis, MN, USA). Plasma IL-1β concentrations were determined by Quantikine® ELISA (R&D Systems, Minneapolis, MN).
4H). MS: m/z 433.1 (M+H+).
Inflammasome activation.PBMCs (iXCells Biotechnologies, San Diego, USA) were thawed the day before the assay and seeded in complete medium (RPMI 1640 medium with GlutaMAX, supplemented with an additional 2.5 g/L D-glucose, 10% Fet al Bovine Serum, 100 mM Sodium Pyruvate, 1% Penicillin/Streptomycin, 10 mM HEPES and 0.05 mM β -mercaptoethanol) in polystyrene V-bottom 96-well plates at 5x10^4 cells per well and incubated overnight at 37°C with 5% CO 2. The next day, PBMC media was r eplaced with serum-fr ee media p rior t o the assay. […]

[2] = target: NLRP3 inflammasome (Mus musculus, UniProt Q8R4B8); assay: Inhibition of IL-1β production in mouse BMDMs stimulated by LPS + monosodium urate crystals; type: cell-based; set-up: host or cells: mouse PBMCs; mouse bone-marrow derived macrophages; mouse whole blood (C57BL/6 in the ex vivo study); settings: Mouse BMDM, read-out: Geo Av IC50, IL-1β
Sequence of NLRP3 inflammasome (Q8R4B8 whole entry): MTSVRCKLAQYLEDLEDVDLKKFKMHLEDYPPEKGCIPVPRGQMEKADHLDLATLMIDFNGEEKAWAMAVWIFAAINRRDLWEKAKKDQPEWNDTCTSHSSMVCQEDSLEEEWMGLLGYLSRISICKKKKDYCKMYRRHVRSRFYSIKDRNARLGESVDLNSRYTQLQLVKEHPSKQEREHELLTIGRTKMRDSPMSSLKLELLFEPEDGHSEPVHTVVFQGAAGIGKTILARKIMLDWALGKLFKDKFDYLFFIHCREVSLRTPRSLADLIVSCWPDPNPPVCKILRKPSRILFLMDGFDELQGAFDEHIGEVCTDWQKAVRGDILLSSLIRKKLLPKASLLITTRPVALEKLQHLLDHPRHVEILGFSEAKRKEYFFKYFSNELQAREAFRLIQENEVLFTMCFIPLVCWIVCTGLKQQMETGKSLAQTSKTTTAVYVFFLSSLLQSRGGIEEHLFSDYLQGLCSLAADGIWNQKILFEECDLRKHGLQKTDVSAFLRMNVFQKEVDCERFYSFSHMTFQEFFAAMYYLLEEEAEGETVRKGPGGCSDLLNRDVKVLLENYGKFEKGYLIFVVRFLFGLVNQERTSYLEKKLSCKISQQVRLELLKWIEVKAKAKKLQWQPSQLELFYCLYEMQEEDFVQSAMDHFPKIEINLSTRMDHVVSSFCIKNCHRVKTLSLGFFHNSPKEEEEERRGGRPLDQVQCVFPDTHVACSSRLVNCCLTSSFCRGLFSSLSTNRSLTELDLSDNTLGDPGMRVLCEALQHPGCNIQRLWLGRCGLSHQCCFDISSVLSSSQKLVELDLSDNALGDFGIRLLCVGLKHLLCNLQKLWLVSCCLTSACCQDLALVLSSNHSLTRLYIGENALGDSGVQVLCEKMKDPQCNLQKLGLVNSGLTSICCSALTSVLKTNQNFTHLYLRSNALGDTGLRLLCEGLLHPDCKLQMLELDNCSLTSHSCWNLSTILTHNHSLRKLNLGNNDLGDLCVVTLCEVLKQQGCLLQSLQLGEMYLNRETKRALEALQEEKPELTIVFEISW
Description: Inflammasome activation and whole blood assays were essentially carried out as described earlier. Details can be found in the supplementary information section accompanying this publication. A protocol for blood draws from healthy volunteers and use of the blood in preclinical assays was approved by Western Institutional Review Board, Inc (Puyallup, WA, USA). Informed consent was obtained from each donor prior to the first blood draw.
as §1
4H). MS: m/z 433.1 (M+H+). […]

CO[C@@H]1COc2c(S(=O)(=O)NC(=O)Nc3c4c(cc5c3CCC5)CCC4)cnn2C1 [JT002]
IC50 [1]: 7 nM
IC50 [2]: 3 nM
